In patent US4021552A, “10-[ω-(BENZOYLPIPERIDINYL)ALKYL]PHENOTHIAZINES” (A. H. Robins Company, Incorporated, priority 1976, dated 1977):
Where a name gives a salt, the structure may show the parent alone. Read-outs that look alike come from different tables or passages of the source.

Experiments:
[1] = tested on: d-amphetamine lethality in mice; test: block of lethal effects of d-amphetamine in aggregated mice (modified procedure of Burn and Hobbs); assay type: in vivo; details: Mus musculus
Text: Intern. Pharmacodyn. 113: 290 (1958).
Effects of different pretreatment time intervals
on d-amphetamine lethality in mice

[2] = acute toxicity (72 hour LD50) in mice; details: mouse, in vivo, IP, read-out: 72 hour LD50 (95% Confidence Limits)
[3] = IP, mice, 1 hr. pretreatment, read-out: Protective ED50 (95% confidence limits)
[4] = IP, mice, 4 hrs. pretreatment, read-out: Protective ED50 (95% confidence limits)
[5] = IP, mice, 8 hrs. pretreatment, read-out: Protective ED50 (95% confidence limits)
[6] = IP, mice, 16 hrs. pretreatment, read-out: Protective ED50 (95% confidence limits)

SMILES | ED50 [1, 3] [mg/kg] | ED50 [1, 4] [mg/kg] | ED50 [1, 5] [mg/kg] | ED50 [1, 6] [mg/kg] | LD50 at 72 h [2] [mg/kg] | ED50 ([1]; ip, running text: administered I.P. in mice, after 16 hours, read-out: ED50) [mg/kg]
CC(=O)c1ccc2c(c1)N(CCCN1CCC(C(=O)c3ccc(F)cc3)CC1)c1ccccc1S2 [Example 6, 2-Acetyl-10-[3-(4-p-fluorobenzoylpiperidiny)propyl] phenothiazine Difumarate Sesquihydrate] | 0.14 | 0.1 | 0.06 | 0.76 | 287 | –
O=C(c1ccc(F)cc1)C1CCN(CCCN2c3ccccc3Sc3ccccc32)CC1 [Example 1, 10-[3-(4-p-Fluorobenzoylpiperidinyl)propyl]phenothiazine Fumarate Hydrate (1:4)] | 0.94 | 0.35 | 1.27 | 12.1 | 330 | –
O=C(c1ccc(F)cc1)C1CCN(CCCN2c3ccccc3Sc3ccc(Cl)cc32)CC1 [Example 7, 2-Chloro-10-[3-(4-p-fluorobenzoylpiperidinyl)propyl] phenothiazine Hydrochloride Hydrate (1:4)] | 0.17 | 0.53 | 0.19 | 0.72 | 248 | 0.72
O=C(c1ccc(F)cc1)C1CCN(CCCN2c3ccccc3Sc3ccc(C(F)(F)F)cc32)CC1 [Example 4, 2-Trifluoromethyl-10-[3-(4-p-fluorobenzoylpiperidinyl)propyl]phenothiazineFumarate] | 1.44 | 3.5 | 1.4 | 1.89 | 317 | –
